The values that follow come from patent publication US20090246249A1, “COATING COMPOSITIONS HAVING IMPROVED PERFORMANCE” (priority 2008, published 2009).

Square brackets hold non-standard residues; d marks the D form. Ends that are not written are not given here. * marks the point of attachment. Myristoyl = CCCCCCCCCCCCCC(=O)*; Lauroyl = CCCCCCCCCCCC(=O)*; linker = not defined here; Aun = NCCCCCCCCCCC(=O)O

Data set [1] is described as follows: Critical micelle concentration (methyl orange assay). As to conditions: pH 7 PBS, methyl orange 0.04 mM, A484. The data set is classed as physicochemical. The procedure: Formation of a composition of the invention, and evidence of macromolecular network formation, may be monitored or quantified by any means known in the art. In this example, macromolecular formation was detected using a standard assay for determining critical micelle concentration (“CMC”). In this assay, a solution containing the composition of the invention (in a range of concentrations in pH 7 phosphate buffered saline (“PBS”)) was mixed with a solution of methyl orange (0.04 mM in PBS), and the absorbance of the mixture was measured at 484 nm (A484). CMC is the concentration at which a sharp decrease in absorbance at A484 is observed, a change in the optical properties of methyl orange when trapped in a hydrophobic phase, such as caused by self-association as a macromolecular network (Table 7, “CMC”). Also included in this assay were an assay control peptide having an amino acid sequence of SEQ ID NO:122 (Table 7, “Control”), and compound 119 (a PEGylated peptide, the peptide having an amino acid sequence of SEQ ID NO:122, as described in more detail in Example 6 herein).

Data set [2] in a line: Retention of binding to metal bead after incubation in 10% BSA with 10 mM guanidinium chloride (mimics human plasma). As to conditions: 18 hour incubation in 10% BSA + 10 mM guanidinium chloride, 37° C.; comparator SEQ ID NO:122. The text has this:
In this example, illustrated are unexpected beneficial properties of the composition of the invention, including but not limited to, one or more improved biophysical properties. Such one or more unexpected beneficial properties of a composition of the invention may comprise an increase in stability. An increase in stability may comprise any one or more of resistance to chemical denaturation, resistance to proteolytic degradation, improved retention to a substrate (e.g., resistance to being competed off a substrate to which it is bound, such as by proteins or other biomolecules found in body tissues). Thus, to ascertain a beneficial property of a composition of the invention, it is compared to the properties of a component of the composition-namely, a substrate-binding peptide by itself (e.g., without fatty acid covalently coupled thereto). An assay was developed that, from our direct comparisons (see, e.g., discussion of FIG. 2 below, and Example 7 herein), mimicked the effect of incubation of substrate-binding peptide with human plasma on stability of binding of a substrate-binding peptide to its substrate. The assay utilized incubations in the presence of 10% bovine serum album (BSA) with 10 mM guanidinium chloride. The high BSA concentration mimics the elevated albumin content of human plasma, and the guanidinium chloride is used to compete with any charged interactions involved in binding of the substrate-binding peptide to its substrate.
In this assay, two immunoassay plates were prepared for a “side-by-side” comparison of binding of a test sample (substrate-binding peptide or composition of the invention) to its substrate with or without the presence of 10% BSA with 10 mM guanidinium chloride. The wells of each 96-well polypropylene plate were incubated with 350 μl BSA 1% in PBS for 30 minutes at 20° C. with 500 rpm shaking. To each well was added one acetone-cleaned 3/32″ 316LVM stainless steel bead, followed by addition of dilutions in PBS of the test sample in a range of concentrations starting from 10 μM. Final volume in each well was 200 μl. The plates were incubated for 1 hour at 20° C. with 500 rpm shaking to allow for the binding to occur. The beads were washed 3 times with 250 μl PBS using a plate washer. […]
In the immunoassay for detecting binding without the presence of 10% BSA with 10 mM guanidinium chloride, added to each well was 200 μl of streptavidin AP (AP is alkaline phosphatase) at 1/200 in TBS+1% BSA. […] When color has developed, each well was read at OD405 nm in endpoint mode using a plate reader. […] When color has developed, the wells were read at OD405 nm in endpoint mode using a plate reader. […]

For data set [3], the system named is Staphylococcus aureus strain MZ100. The data set can be described thus: Tibia pin assay: coated titanium pins with vancomycin, bacterial cfu count. The data set is classed as cell-based. Details: key: —: “−” means no cfus; “many” means too many cfus to count, as they converge into one spot. As to conditions: pin coated with test sample + vancomycin. The text has this: In this assay, titanium pins were used as a model for tibia pins. Briefly, sterile pins were first coated with biofunctional composition (“SEQ ID NO:124-linker-SEQ ID NO:122”) comprising a substrate-binding peptide having binding specificity for vancomycin (“SEQ ID NO:124”) linked to a substrate-binding peptide having binding specificity for metal (“SEQ ID NO:122”), or a composition of the invention formed from compound comprising the biofunctional composition covalently coupled to fatty acid. The respective coatings also include vancomycin bound thereto. The coated pins were then placed in a silicone tube containing liquid bacterial growth medium and inoculated with bacteria. After incubation, the pins were removed, and then the liquid growth medium was serially diluted. The serial dilutions were inoculated onto bacterial culture plates, the plates were incubated, and counted on the plates were bacterial colonies.
In this assay, test samples (biofunctional composition (Table 6, “BC”) or compositions 133, 134, 135, 136 139) each were used to coat a pin by incubating the test sample (in a range of from about 0.8 mM to about 1 mM) with 2.5 μl of a 10 mM vancomycin solution and PBS to a final volume of 250 μl in a microtube (3 pins per tube) for 60 minutes at room temperature with occasional agitation. In a piece of silicone tubing (1.5 mm inner diameter, 50 mm long), added is tryptic soy broth+0.2% glucose, the coated pin, and 103 colony forming units (cfu) of Staphylococcus aureus strain MZ100 in either a 20 μl inoculum, 40 μl inoculum, or 60 μl inoculum. The tubing is clamped closed, and the tubing is incubated for 37° C. for 3 hours. After 3 hours, serial dilutions (1:10, 1:100, 1:1000) were made of the culture media from each tubing, and 10 μl of the undiluted culture medium and of each dilution were spotted onto the bacterial culture plate. The bacterial culture plate was incubated overnight at 37° C., and then the cfus were counted. The results, a composite of different assay runs, are shown in Table 6 (“−” means no cfus; “many” means too many cfus to count, as they converge into one spot; “NT” means not tested).

For the substance “119: Fmoc-NH-(PEG)27-CO2H covalently coupled to a peptide having the amino acid sequence of SEQ ID NO:122 (PEGylated peptide) (SSHRTNHKKNNPKKKNKTRGSSGK; also: Fmoc-NH-(PEG)27-CO2H coupled, site not given here) [Compound 119, reference compound]”, in data set [1], the CMC is >>10 μM. Further, in data set [2], the “retention of binding of substrate-binding peptide component to its substrate, compared to substrate-binding peptide alone (FIG. 1)” value is “failed to promote retention of binding”.

In the case of “120: amino acid sequence YWAWAYAW (SEQ ID NO:129) covalently coupled to a peptide having the amino acid sequence of SEQ ID NO:122 (YWAWAYAWSSHRTNHKKNNPKKKNKTRGSSGK) [Compound 120, reference compound]”, in data set [2], the “retention of binding of substrate-binding peptide component to its substrate, compared to substrate-binding peptide alone (FIG. 1)” value is “failed to promote retention of binding”.

As to “AUD-AUD-AUD-AUD-SEQ ID NO:122 ([Aun][Aun][Aun][Aun]SSHRTNHKKNNPKKKNKTRGSSGK) [Compound 122]”, in data set [2], the “retention of binding of substrate-binding peptide component to its substrate, compared to substrate-binding peptide alone (FIG. 1)” value is given as “significantly improved retention of binding”.

On to “AUD-AUD-K-AUD-AUD-AUD-AUD-SEQ ID NO:122 ([Aun][Aun]K[Aun][Aun][Aun][Aun]SSHRTNHKKNNPKKKNKTRGSSGK) [Compound 123]”, for which the CMC in data set [1] turned out to be 0.04 µM. The “retention of binding of substrate-binding peptide component to its substrate, compared to substrate-binding peptide alone (FIG. 1)” value in data set [2] is listed as “significantly improved retention of binding”.

In data set [1], “Ac-Y-AUD-AUD-AUD-AUD-AUD-AUD-SEQ ID NO:122 (Ac-Y[Aun][Aun][Aun][Aun][Aun][Aun]SSHRTNHKKNNPKKKNKTRGSSGK) [Compound 132]” showed a CMC of 0.123 µM.

As for “LAU-SEQ ID NO:122 (Lauroyl-SSHRTNHKKNNPKKKNKTRGSSGK) [Compound 126]”, in data set [1], the CMC amounted to 0.37 µM.

Substance “MYR-SEQ ID NO:122 (Myristoyl-SSHRTNHKKNNPKKKNKTRGSSGK) [Compound 125]” showed a CMC in data set [1] of 0.123 µM.

The substance “MYR-linker-SEQ ID NO:122 ({Myristoyl-linker}-SSHRTNHKKNNPKKKNKTRGSSGK; reading uncertain) [Compound 127]” yielded a CMC in data set [1] of 0.123 µM.

In data set [1], “PALM-PALM-PALM-linker-SEQ ID NO:122 (SSHRTNHKKNNPKKKNKTRGSSGK; also: three palmitoyl groups and linker, attachment not placed) [Compound 129]” gave a CMC of 0.123 µM.

Regarding “SSHRTNHKKNNPKKKNKTRGSSGK [Compound 130, AUD-AUD-AUD-AUD-AUD-AUD-SEQ ID NO:122]”, the CMC in data set [1] was 0.041 µM.

Substance “SSHRTNHKKNNPKKKNKTRGSSGK [Compound 131, AUD-AUD-AUD-AUD-AUD-AUD-AUD-AUD-SEQ ID NO:122]” had a CMC in data set [1] of 0.37 µM.

As for “SSHRTNHKKNNPKKKNKTRGSSGK [SEQ ID NO:122]”, the CMC in data set [1] (listed as Control) is listed as >>10 μM.

In the case of “SSSCLIDMYGVCHNFDGAYDSSRG [Compound 134, AUD-AUD-AUD-AUD-SEQ ID NO:124-linker-SEQ ID NO:122]”, in data set [3] (20 μl inoculum), the “cfu 1:10” value is “—”, the “cfu 1:100” value is “—” and the “cfu 1:1000” value was “—”. The cfu undiluted entry in data set [3] (20 μl inoculum, 103 colony forming units, 3 hours 37° C.) is “—”. Besides, in data set [3] (40 μl inoculum), the “cfu 1:10” value was 6 cfu, the “cfu 1:100” value was 1 cfu, the “cfu 1:1000” value is “—” and the cfu undiluted result was “many”. Besides, in data set [3] (60 μl inoculum), the “cfu 1:10” value is recorded as 17 cfu, the “cfu 1:100” value was found to be 5 cfu, the “cfu 1:1000” value is given as “—” and the cfu undiluted result is given as “many”.

In data set [1], “[MYR]2-K-linker-SEQ ID NO:122 (SSHRTNHKKNNPKKKNKTRGSSGK; also: lysine bearing two myristoyl groups plus linker, attachment not placed) [Compound 128]” returned a CMC of 0.123 µM.
